# Reference: paper PMC7932537, “Quantitative profiling of protease specificity” (PLoS Computational Biology, 2021)
# Tested on: MMP-2
# Test: Substrate phage display with NGS: relative probability (RP) of P3-P1' tetramer clusters
# Assay type: biochemical, human
# Conditions: MMP2 - no binning; average relative probability (RP) of the P3-P1' tetramer; redundant tetramers have been averaged out
row,Substance,avg_RP
1,LAQI,17.7137
2,PYFL,19.1471
3,PWGL,31.3204
4,NARL,12.6743
5,VLFL,1.6486
6,PDQL,0.2814
7,PLSI,32.2576
8,GQGL,0.1555
9,VRFM,15.2846
10,PRWI,30.8879
11,NLAL,5.8865
12,AFSL,10.3321
13,YRAL,8.2547
14,AGHL,15.0568
15,PYLL,11.898
16,AHPL,24.4555
17,SASL,17.7881
18,VYAL,19.6906
19,SMYL,1.2279
20,PSRI,23.675
21,MALL,16.9256
22,INQL,1.5518
23,SAYL,11.6614
24,GWRL,0.1031

row,Substance,avg_RP
1,GRPL,5.2852
2,PLPW,30.0861
3,GLHL,0.1267
4,GAKL,0.1271
5,AENL,6.7504
6,MQRL,9.3428
7,PERL,16.3826
8,VGHL,31.6783
9,ALAM,20.8553
10,IRHL,22.5548
11,GHRL,0.0505
12,YQSL,16.6669
13,VAFL,20.6554
14,AFHL,8.795
15,AQEL,0.1876
16,PHCL,0.499
17,ADLI,0.5875
18,PAWL,34.876
19,YLPL,2.3089
20,AQHI,7.3783
21,SWPL,0.4201
22,VWRL,0.9525
23,HMAL,5.2214
24,PMSL,32.4868

# Same assay, conditions: MMP2 - no binning; average relative probability of the P3-P1' tetramer; redundant tetramers have been averaged out
row,Substance,avg_RP
1,VIAL,8.0877
2,YSNL,25.2832
3,PHMM,14.968
4,LDLL,0.0715
5,PWLQ,0.2574
6,YRGL,5.4447
7,LWTL,0.0853
8,SGNL,12.7361
9,VFWM,10.3215
10,LQKL,13.1993
11,LLNM,13.7728
12,PHWL,28.844
13,YANL,27.7486
14,ALHL,14.6488
15,YFSM,0.0661
16,PLMM,20.5706
17,SWAW,0.0563
18,YRSL,1.5061
19,ASFL,10.8605
20,PLPQ,24.381
21,VQLL,8.0197
22,LGML,29.0922
23,VMLL,0.4692
24,SGPL,2.1571
25,TRNL,12.3403

row,Substance,avg_RP
1,LANL,34.4823
2,PFFM,3.5092
3,WGNL,14.7295
4,WGNM,3.7232
5,VDYL,1.426
6,GMRL,0
7,FSHM,11.0227
8,IAYL,27.9862
9,MLSM,5.2342
10,YRHM,0.3212
11,VNLL,0.5682
12,MSSL,27.4466
13,VHSF,0.0855
14,GQHL,1.1642
15,VLAL,13.5229
16,YFPL,0.1432
17,PMRL,20.4124
18,VFGL,12.5523
19,LAAM [P3-P1' tetramer cluster],30.6825
20,FSQL,9.0646
21,FQSL,13.5551
22,VYML,5.0943
23,VNYL,8.4267
24,PASL [P3-P1' tetramer cluster],36.4285
25,SYAL,4.7967

row,Substance,avg_RP
1,MLAL,5.6722
2,VAPL,30.036
3,IWKL,0.0593
4,PWFL,12.628
5,PFFL,12.8224
6,FAAL,18.8584
7,VLWL,11.1539
8,PVQL,26.094
9,LRNI,19.0698
10,VWGI,3.0103
11,QQNL,4.2466
12,GFSL,0.0975
13,PEML,16.0599
14,GYSL,0.0471
15,FRGL,7.4752
16,VWYL,3.6672
17,SGQL,1.0305
18,LAKL,21.2737
19,AISM,11.4166
20,HYSL,0.1694
21,AQSL,18.365
22,MLSL,2.2282
23,AQYL,7.443
24,AWGL,17.7408
25,PLAL,34.4921

row,Substance,avg_RP
1,PSML,33.0235
2,GNRL,0.0463
3,VFSM,2.2653
4,YLPM,0.4306
5,SGSL,7.2251
6,TWAL,0.4366
7,YGNM,13.8836
8,VLHL,19.5348
9,LSRL,14.3329
10,PFRL,16.3818
11,PFYM,8.1842
12,AMNL,16.2852
13,GLNL,0.5789
14,IGNF,24.8743
15,ASNL,28.7368
16,YFNL,0
17,SMNL,2.1645
18,FEHL,1.2103
19,IYNL,11.935
20,FRNL,9.8211
21,LDWM,7.0331
22,PFYL,17.7778

# Same assay, conditions: MMP2 - no binning; average relative probability of the tetramer; redundant tetramers averaged out
row,Substance,avg_RP
1,VRWY,17.3102
2,LLSL,2.0177
3,VRMM,13.0027
4,PHHL,27.4742
5,ALGI,18.2164
6,PSRM,27.1397
7,VYWM,12.492
8,AIHL,13.4941
9,YGNL,24.0019
10,VRHL,25.4239
11,ARPL,27.8706
12,AWSL,7.006
13,PLGL,35.3536
14,VRNV,5.0406
15,PAPW,31.7353
16,ARLL,1.104
17,PMFL,18.5721
18,PWFM,3.6842
19,VRGM,26.4376
20,HLAL,11.3603
21,PIGI,31.281
22,PKWL,29.287
23,PTAL,32.8941

row,Substance,avg_RP
1,HRSL,7.8508
2,VNWM,16.277
3,MAWL,31.5866
4,PNAF,16.8865
5,GYHL,0.0815
6,PFKY,2.0624
7,WMNL,0
8,PRLY,15.7594
9,ARKL,0
10,PLQI,21.9897
11,TQNL,7.2378
12,PLAF,31.4142
13,PLMY,17.2027
14,PQRM,19.3209
15,PRQV,4.0665
16,TRWL,15.1455
17,WRNL,6.7583
18,AHGI,8.8809
19,ALPL,22.1772
20,WFNL,0
21,ALNF,9.2594
22,ATAL,22.9481
23,HAHL,20.0775

row,Substance,avg_RP
1,IEYL,5.366
2,WHGL,0.5588
3,PRSH,18.6153
4,PYKL,15.5683
5,AHGL,23.6336
6,PVFL,21.7568
7,VWHI,1.9312
8,FAHL,19.6504
9,LRAM,29.407
10,TNWL,15.348
11,PKWI,22.5059
12,PGKM,18.9001
13,WRAY,17.4833
14,PWAL,31.9211
15,VWNY,4.6964
16,PFSN,0.4602
17,PWAW,10.3227
18,ANSL,10.0738
19,IGEI,19.2988
20,PSWV,21.5104
21,VWNL,14.4124
22,IRFL,12.1004
23,PRSY,30.3745

row,Substance,avg_RP
1,VNHL,12.8499
2,PYGM,27.2726
3,PKGM,31.666
4,VSFL,5.9184
5,AVAI,20.993
6,HAWM,17.1047
7,PWGM,25.1614
8,LSSL,24.2822
9,IWSL,5.404
10,PLML,25.0435
11,PYKY,4.8733
12,VRGV,2.6159
13,WFAL,0
14,YAGL,20.9112
15,PYNL,30.8263
16,YASL,26.9916
17,PSWS,13.1501
18,SWGL,0.1389
19,WQGL,12.939
20,YHHL,0
21,MAHL [P3-P1' tetramer cluster],29.5006
22,GRHL,3.5979
23,VAAV,19.031

# Same assay, conditions: MMP2; RP of matching P3-P1' tetramer; common set of MMP2-9 selectome; RP above KL threshold
row,Substance,relative probability (RP) (acc.to MMP2)
1,AGSL,14.97

# Same assay, conditions: P3-P1' tetramer matching the MS detected MMP2 cleavage sequence; RP_above_4.5
row,Substance,relative probability (RP) of matching tetramer
1,AGSL,14.97

# Same assay, conditions: tetramer annotation of MMP-2 cleavage sites in all substrates from MEROPS
row,Substance,relative probability (RP)
1,AAEL,15.51

# Same assay, conditions: tetramer annotation of MMP-2 cleavage sites in physiologic substrates from MEROPS
row,Substance,relative probability (RP)
1,RIIG,0.08

# Same assay, conditions: tetramer clusters unique to the MMP-2 selectome, MMP-2 RP
row,Substance,relative_probability
1,LANI [P3-P1' tetramer cluster],29.81
2,MGAL [P3-P1' tetramer cluster],31.51
3,LAAM [P3-P1' tetramer cluster],30.68
4,MNWL [P3-P1' tetramer cluster],30.10
5,LGNM [P3-P1' tetramer cluster],29.28
6,MGNL [P3-P1' tetramer cluster],31.00
7,IGQL [P3-P1' tetramer cluster],30.24
8,VANW [P3-P1' tetramer cluster],29.92
9,MAHL [P3-P1' tetramer cluster],29.50

# Same assay, conditions: tetramer probability in MMP2 set / naive library; 200 nM protease, 2 h, 37°C
row,Substance,relative probability (RP)
1,PASL [P3-P1' tetramer cluster],36.4285

# Same assay, conditions: tetramer projected onto MMP-2 cleavage sites determined by Prudova et al. (2010)
row,Substance,relative probability (RP)
1,PASL [P3-P1' tetramer cluster],36.43
